Results reported in patent publication US20080039431A1, “Method of improving plant growth by reducing viral infections” (priority 2006, published 2008).

Tested on: tomato spotted wilt virus (TSWV)
Test: Replicated tomato drench trial (Example 6)
Assay type: in vivo, tomato (Lycopersicon esculentum MILL.)
Conditions: prothioconazole 0.0084 g ai/plant, imidacloprid 0.01 g/plant; for Percent control of incidence of TSWV in tomatoes: Abbott's formula; for Percent incidence of TSWV in tomatoes: drench
Experimental: Cultivation—A replicated trial on tomato (Lycopersicon esculentum MILL.) was initiated in Molino, Fla. to determine if drenches of prothioconazole alone and in combination with the insecticide imidacloprid would suppress TSWV in tomato. Tomato plants, cultivar FL 47 were transplanted on April 11 into 4 rows, each 9.1 meters long, 60 plants per plot, with three replications. Treatments were applied, into a shallow bowl dug at the base of each plant, as a drench in 40 ml water per plant (6 days after transplanting) on April 17. Treatments— • Untreated—no in-furrow treatment • Imidacloprid@0.01 g imidacloprid/plant. • Prothioconazole—prothioconazole@0.0084 g active ingredient/plant. • Prothioconazole+Imidacloprid—prothioconazole@0.0084 g active ingredient/plant+imidacloprid@0.01 g imidacloprid/plant. TSWV rating—University researchers recommend buffers in TSWV testing. Therefore, the center two rows (30 plants) per plot were used for virus ratings with the outer two rows acting as buffers. TSWV incidence determinations were made based on the presence or absence of TSWV symptoms (chlorosis and stunting) per plant. The four treatments were rated at 21, 29, and 39 days after treatment. Synergy formula—The Colby formula for proof of synergy was used in Example 6. The percent incidence values were converted to percent control with Abbotts's formula (1-treated/untreated)*100. Percent control values for solo treatment X and solo treatment Y, were entered into the Colby formula. When the value determined from the plots with both treatment X and Y applied together is greater than the value determined by the Colby formula then synergy is indicated. The formula is: X+Y−(X*Y/100).

OC(Cc1ccccc1Cl)(Cn1nc[nH]c1=S)C1(Cl)CC1 (stereo not drawn) [Prothioconazole, prothioconazole]
Percent control of incidence of TSWV in tomatoes (21 days after treatment): 54.79% | Percent incidence of TSWV in tomatoes (21 days after treatment): 13.2% | Percent control of incidence of TSWV in tomatoes (29 days after treatment): 28.00% | Percent incidence of TSWV in tomatoes (29 days after treatment): 48.6% | Percent control of incidence of TSWV in tomatoes (39 days after treatment): 21.18% | Percent incidence of TSWV in tomatoes (39 days after treatment): 66.6%
